Measured values as given in patent US12122787B2, “Fused pyridone compound, and preparation method therefor and use thereof” (SHANGHAI JEMINCARE PHARMACEUTICALS CO., LTD, priority 2019, dated 2024).
Like-named read-outs stand apart in the source and are kept apart here.

Key:
Assay type in all cases: cell-based
[1] = test system: phosphorylated ERK (Thr202/Tyr204) in NCI-H358 cells expressing mutant RAS(G12C); assay: Inhibition of RAS-mediated signal transduction: phosphorylated ERK ELISA in NCI-H358 cells; conditions: NCI-H358 cells, 2 hours of treatment, pERK normalized by Janus Green B, read-out: p-ERK IC50 (NCI H358)
Description: The cells were treated with or without the compound of the present disclosure (dimethyl sulfoxide, DMSO), and the final concentration of DMSO was guaranteed to be 0.5%. After 2 hours of treatment, the medium was removed and 4% paraformaldehyde (Beyotime catalog number E672002-0100) was added and left to stand for 20 minutes. Cells were washed with PBS after fixation and incubated with precooled methanol for 10 min to permeabilize the cell membrane.
The level of phosphorylated ERK was detected using an enzyme linked immunosorbent assay (ELISA) method. […] The plates were washed 5 times with PBS containing 0.05% Tween 20. […] The reaction was stopped by adding 1 mol/L H2SO4, and the OD value was read at 450 nm by EnVision (PerkinElmer).
The total number of cells per well was detected by Janus Green B staining method. After detecting the level of phosphorylated ERK, the 96-well plate was washed with PBS until colorless, and 0.1% Janus Green B (Abcam catalogue number ab111622) was added to incubate for 10 minutes. After the 96-well plate was washed with double distilled water, 0.1 mol/L HCl was added, then the mixture was shaked and incubated for 10 minutes. The OD value was read at 595 nm by EnVision (PerkinElmer).
The signal of pERK (Thr202/Tyr204) was normalized by the signal value of Janus Green B, and the inhibition percentage after drug treatment relative to DMSO reference was calculated. The percentage values were fitted by a four-parameter dose-response curve and generated IC50 values.

[2] = test system: MIA PaCa2 cells expressing KRAS-G12C; assay: Growth inhibition of tumor cell line expressing KRAS-G12C (Cell Titer Glo), MIA PaCa2; conditions: MIA-Paca2, 72 hours
Description: (§1) The ability of the compounds of the present disclosure to inhibit the growth of cells expressing KRAS-G12C was evaluated by measuring the cell viability and calculating the GI50 values.
(§2) The tumor cell line NCI-H358 (ATCC catalogue number CRL-5807) expressing KRAS-G12C was cultured in RPMI medium supplemented with 10% fetal bovine serum and penicillin/streptomycin, and the tumor cell line MIA PaCa2 (ATCC CRL-1420) expressing KRAS-G12C was cultured in DMEM medium supplemented with 10% fetal bovine serum, 2.5% horse serum, and penicillin/streptomycin.
(§3) Cells NCI-H358 and MIA-Paca2 were inoculated into black transparent bottom 384-well plate (PerkinElmer catalogue number 6007460) with cell density of 1000 and 800 respectively, and the cells were allowed to adhere to the wall overnight (8-12 hours). After the cells adhered to the wall, the experimental group was added with the compound of the present disclosure diluted 5 times the concentration of the working solution (final concentration containing 0.1% dimethyl sulfoxide, i.e. DMSO); the control group was added with the same dilution as the experimental group (final concentration containing 0.1% DMSO). After 72 hours, Cell Titer Glo reagent (Promega catalogue number G7572) was used to detect ATP content according to the instruction method to determine the amount of cell proliferation. The brief operation steps were as follows: the cell plate was taken out and kept at normal temperature for equilibrium for 30 minutes; Cell Titer Glo reagent with the same volume as the culture was added; the culture plate was placed on a shaker for shaking and cracking for 2 minutes; the culture plate was left to stand at room temperature for 10 minutes; then the light signal value was read by microplate reader EnVision (PerkinElmer).
(§4) Data from all experimental groups were used to calculate the respective percent inhibition using the DMSO group, and the GI50 was calculated using the data processing software GraphPad to analyze the inhibition rates produced by the 9 compound dose concentrations diluted at ⅓-fold ratio.

[3] = test system: NCI-H358 cells expressing KRAS-G12C; assay: Growth inhibition of tumor cell line expressing KRAS-G12C (Cell Titer Glo), NCI-H358; conditions: NCI-H358, 72 hours
Description: as §1, §2, §3, §4

| SMILES | IC50 ([1]; Homo sapiens, NCI-H358, 2 h) [nM] | IC50 [1] [nM] | other results |
| --- | --- | --- | --- |
| C=CC(=O)N1C[C@]2(CO)C(=O)N(C)c3c(c4cc(F)c(-c5c(O)cccc5F)nc4n(-c4c(C)ccnc4C(C)C)c3=O)N2C[C@H]1C [Compound 51A] | 1280 | – | – |
| C=CC(=O)N1C[C@@H]2CN(C)c3c(c4cc(F)c(-c5c(O)cccc5F)c(F)c4n(-c4c(C)ccnc4C(C)C)c3=O)N2C[C@H]1C (single isomer, unassigned) [Compound 16A-2] | – | 84 | GI50 [2]: 146 nM; GI50 [3]: 74 nM |
| C=CC(=O)N1C[C@@H]2COc3c(c4cc(F)c(-c5c(C)ccc6[nH]cnc56)nc4n(-c4ccccc4C(C)C)c3=O)N2C[C@H]1C [Compound 17] | 275 | – | – |
| C=CC(=O)N1C[C@@H]2C(=O)N(CCN(C)C)c3c(c4cc(Cl)c(-c5c(O)cccc5F)c(F)c4n(-c4c(C)ccnc4C(C)C)c3=O)N2C[C@H]1C (atropisomer, axis not shown) [Compound 26D] | – | 68 | GI50 [2]: 79 nM; GI50 [3]: 82 nM |
| C=CC(=O)N1C[C@@H]2CN(CC(=O)O)c3c(c4cc(F)c(-c5c(O)cccc5F)c(F)c4n(-c4c(C)ccnc4C(C)C)c3=O)N2C[C@H]1C [Compound 39A-1] | – | 1640 | – |
| C=CC(=O)N1C[C@@H]2COc3c(c4cc(F)c(-c5c(F)cccc5OC)nc4n(-c4c(C)ccnc4C(C)C)c3=O)N2C[C@H]1C (single isomer, unassigned) [Compound 6B] | – | 691 | – |
| C=CC(=O)N1C[C@@H]2C(=O)N(C)c3c(c4cc(F)c(-c5c(O)cccc5F)c(F)c4n(-c4c(C)ccnc4C(C)C)c3=O)N2C[C@H]1C [Compound 21A] | – | 13 | – |
| C=CC(=O)N1C[C@@H]2C(=O)N(C)c3c(c4cc(F)c(-c5ccccc5O)c(F)c4n(-c4c(C)ccnc4C(C)C)c3=O)N2C[C@H]1C [Compound 46A] | 2050 | – | – |
| C=CC(=O)N1C[C@@H]2CN(CCCN(C)C)c3c(c4cc(F)c(-c5c(O)cccc5F)c(F)c4n(-c4c(C)ccnc4C(C)C)c3=O)N2C[C@H]1C [Compound 34A] | 503 | – | – |
| C=CC(=O)N1C[C@@H]2C(=O)N(CCN(C)C)c3c(c4cc(F)c(-c5c(O)cccc5F)c(F)c4n(-c4c(C)ccnc4C(C)C)c3=O)N2C[C@H]1C [Compound 24A] | 3820 | – | – |
| C=CC(=O)N1C[C@@H]2COc3c(c4cc(Cl)c(-c5c(O)cccc5F)nc4n(C)c3=O)N2C[C@H]1C [Compound 9] | 1960 | – | – |
| C=CC(=O)N1C[C@@H]2COc3c(c4cc(F)c(-c5c(O)cccc5F)c(F)c4n(-c4c(C)ccnc4C(C)C)c3=O)N2C[C@H]1C (atropisomer, axis not shown) [Compound 3A-1] | – | 3010 | – |
| C=CC(=O)N1C[C@@H]2COc3c(c4cc(Cl)c(-c5c(O)cccc5F)c(F)c4n(C[C@@H]4CCCN4C)c3=O)N2C[C@H]1C [Compound 45A] | 1540 | – | – |
| C=CC(=O)N1C[C@@H]2CN(CC(=O)OC)c3c(c4cc(F)c(-c5c(O)cccc5F)c(F)c4n(-c4c(C)ccnc4C(C)C)c3=O)N2C[C@H]1C [Compound 38B-1] | – | 1130 | – |
| C=CC(=O)N1C[C@@H]2COc3c(c4cc(F)c(-c5c(O)cccc5F)c(F)c4n(-c4c(C)ccnc4C(C)C)c3=O)N2C[C@H]1C [Compound 3A-2] | – | 5240 | – |
| C=CC(=O)N1C[C@@H]2C(=O)N(C)c3c(c4cc(F)c(-c5c(N)cccc5F)c(F)c4n(-c4c(C)ccnc4C(C)C)c3=O)N2C[C@H]1C [Compound 33A-1] | 717 | – | – |
| C=CC(=O)N1CC2COc3c(c4cc(F)c(-c5c(O)cccc5F)c(F)c4n(-c4c(C(C)C)ncnc4C(C)C)c3=O)N2CC1C (single isomer, unassigned) [Compound 19B] | – | 936 | – |
| C=CC(=O)N1C[C@@H]2COc3c(c4cc(F)c(-c5c(C)ccc6[nH]ncc56)nc4n(-c4ccccc4C(C)C)c3=O)N2C[C@H]1C (single isomer, unassigned) [Compound 13B] | – | 5670 | – |
| C=CC(=O)N1C[C@@H]2CN(C)c3c(c4cc(F)c(-c5c(O)cccc5F)c(F)c4n(-c4c(C)ccnc4C(C)C)c3=O)N2C[C@H]1C (atropisomer, axis not shown) [Compound 16B-1] | – | 648 | – |

| SMILES | IC50 ([1]; Homo sapiens, NCI-H358, 2 h) [nM] | IC50 [1] [nM] | other results |
| --- | --- | --- | --- |
| C=CC(=O)N1C[C@@H]2CN(C)c3c(c4cc(F)c(-c5c(O)cccc5F)c(F)c4n(-c4c(C)ccnc4C(C)C)c3=O)N2C[C@H]1C (single isomer, unassigned) [Compound 16B] | – | 1250 | – |
| C=CC(=O)N1C[C@@H]2C(=O)Nc3c(c4cc(F)c(-c5c(O)cccc5F)c(F)c4n(-c4c(C)ccnc4C(C)C)c3=O)N2C[C@H]1C [Compound 22B-1] | – | 213 | – |
| C=CC(=O)N1C[C@@H]2COc3c(c4cc(F)c(-c5c(O)cccc5F)c(F)c4n(-c4c(C)ccnc4C(C)C)c3=O)N2C[C@H]1C [Compound 3A] | – | 474 | – |
| C=CC(=O)N1C[C@@H]2C(=O)N(C)c3c(c4cc(F)c(-c5c(O)cccc5F)c(F)c4n(-c4c(C)ccnc4C(C)C)c3=O)N2C[C@H]1C [Compound 21B-1] | – | 2240 | – |
| C=CC(=O)N1C[C@@H]2C(=O)N(C)c3c(c4cc(F)c(-c5ccccc5F)c(F)c4n(-c4c(C)ccnc4C(C)C)c3=O)N2C[C@H]1C [Compound 31A] | 2160 | – | – |
| C=CC(=O)N1C[C@@H]2C(=O)N(CCN(C)C)c3c(c4cc(Cl)c(-c5c(O)cccc5F)c(F)c4n(-c4c(CC)ccnc4C(C)C)c3=O)N2C[C@H]1C (atropisomer, axis not shown) [Compound 54A-2] | – | 844 | – |
| C=CC(=O)N1C[C@@H]2C(=O)N(CCN(C)C)c3c(c4cc(Cl)c(-c5c(O)cccc5F)c(F)c4n(-c4c(CC)ccnc4C(C)C)c3=O)N2C[C@H]1C [Compound 54A-1] | – | 641 | – |
| C=CC(=O)N1C[C@@H]2C(=O)N(C)c3c(c4cc(F)c(-c5c(O)cccc5F)c(F)c4n(-c4c(C)ccnc4C(C)C)c3=O)N2C[C@H]1C [Compound 21B] | – | 306 | – |
| C=CC(=O)N1C[C@@H]2CNc3c(c4cc(F)c(-c5c(O)cccc5F)nc4n(-c4ccccc4C(C)C)c3=O)N2C[C@H]1C [Compound 11A] | 1120 | – | – |
| C=CC(=O)N1C[C@@H]2COc3c(c4cc(F)c(-c5c(F)cccc5OC)nc4n(-c4ccccc4C(C)C)c3=O)N2C[C@H]1C [Compound 1A] | 173 | – | – |
| C=CC(=O)N1CCN2c3c(c(=O)n(-c4ccccc4C(C)C)c4nc(-c5c(O)cccc5F)c(F)cc34)OC[C@H]2C1 [Compound 12A] | 604 | – | – |
| C=CC(=O)N1C[C@@H]2CN(CC(=O)OC)c3c(c4cc(F)c(-c5c(O)cccc5F)c(F)c4n(-c4c(C)ccnc4C(C)C)c3=O)N2C[C@H]1C [Compound 38A-1] | – | 242 | – |
| C=CC(=O)N1C[C@@H]2C(=O)N(C)c3c(c4cc(Cl)c(-c5c(O)cccc5F)c(F)c4n(-c4c(C)ccnc4C(C)C)c3=O)N2C[C@H]1C [Compound 23B-2] | – | 749 | – |
| C=CC(=O)N1C[C@@H]2C(=O)N(C)c3c(c4cc(Cl)c(-c5c(O)cccc5F)c(F)c4n(-c4c(C)ccnc4C(C)C)c3=O)N2C[C@H]1C [Compound 23B-1] | – | 150 | – |
| C=CC(=O)N1C[C@@H]2C(=O)N(C)c3c(c4cc(F)c(-c5c(C)ccc6[nH]nc(C7CC7)c56)c(F)c4n(-c4c(C)ccnc4C(C)C)c3=O)N2C[C@H]1C [Compound 47A] | 1560 | – | – |
| C=CC(=O)N1C[C@@H]2C(=O)N(C3CN(C)C3)c3c(c4cc(F)c(-c5c(F)cccc5OC)c(F)c4n(-c4c(C)ccnc4C(C)C)c3=O)N2C[C@H]1C [Compound 43] | 1920 | – | – |
| C=CC(=O)N1C[C@@H]2C(=O)N(CCN(C)C)c3c(c4cc(F)c(-c5c(F)cccc5OC)c(F)c4n(-c4c(C)ccnc4C(C)C)c3=O)N2C[C@H]1C [Compound 48A-1] | 294 | – | – |
| C=CC(=O)N1C[C@@H]2CN(CC(=O)O)c3c(c4cc(F)c(-c5c(O)cccc5F)c(F)c4n(-c4c(C)ccnc4C(C)C)c3=O)N2C[C@H]1C [Compound 39A] | – | 798 | – |
| C=CC(=O)N1C[C@@H]2C(=O)Nc3c(c4cc(F)c(-c5c(O)cccc5F)c(F)c4n(-c4c(C)ccnc4C(C)C)c3=O)N2C[C@H]1C [Compound 22B] | – | 548 | – |
